According to ChEMBL document CHEMBL3822372, “The development of peptide ligands that target helix 69 rRNA of bacterial ribosomes” (Bioorg Med Chem, 2016):
The source made the active and inactive calls. The rule behind the calls is not given here.

Columns and labels:
[1] = Binding affinity to MS2-tagged 50s rRNA A-site in Escherichia coli BL21(DE3) by single molecule FRET assay
[2] = Binding affinity to pseudouridylated H69 50s rRNA (unknown origin) by ESI-MS analysis; settings: for Kd: read-out: Kd(app)
[3] = Binding affinity to uridylated H69 50s rRNA (unknown origin) by ESI-MS analysis; settings: for Kd: read-out: Kd(app)
[4] = Binding affinity to pseudouridylated H69 50s rRNA (unknown origin) at 2:1 peptide:RNA ratio by ESI-MS analysis
[5] = Binding affinity to uridylated H69 50s rRNA (unknown origin) at 2:1 peptide:RNA ratio by ESI-MS analysis; settings: read-out: Kd(app)
[6] = Binding affinity to pseudouridylated H69 50s rRNA (unknown origin) at 1:1 peptide:RNA ratio by ESI-MS analysis
[7] = Selectivity ratio for uridylated H69 50s rRNA (unknown origin) to pseudouridylated H69 50s rRNA (unknown origin)
[8] = Binding affinity to 5'-biotin labeled pseudouridylated H69 50s rRNA (unknown origin) at 2:1 peptide:RNA ratio by ESI-MS analysis; settings: read-out: Kd(app)
[9] = Binding affinity to 5'-biotin labeled uridylated H69 50s rRNA (unknown origin) by ESI-MS analysis
[10] = Binding affinity to pseudouridylated H69 50s rRNA (unknown origin) at 20 uM by ESI-MS analysis
[11] = Binding affinity to 5'-biotin labeled pseudouridylated H69 50s rRNA (unknown origin) by ESI-MS analysis; settings: read-out: Kd(app)

Row | Molecule | Kd [2] [µM] | Kd [3] [µM] | further results
1 | COc1ccc(C[C@H](N)C(=O)N[C@H]2[C@@H](O)[C@H](n3cnc4c(N(C)C)ncnc43)O[C@@H]2CO)cc1 [PUROMYCIN] |  |  | Kd [1]: 480 µM
2 | H-AQVANHQ-NH2 |  | 9.9 | Kd(app) [2]: inactive
3 | H-NAVANHQ-NH2 | 4.6 | 52.8 | 
4 | H-NQAANHQ-NH2 |  |  | Kd ([4]; read-out: Kd(app)): 5 µM; Kd [5]: 1 µM; Activity [6]: Active; Selectivity ratio [7]: 23
5 | H-NQRANHQ-NH2 |  |  | Kd [8]: 6 µM; Kd(app) [9]: inactive; Activity [4]: Active; Activity [6]: Active
6 | H-NQVAAHQ-NH2 |  | 14.3 | Kd(app) [2]: inactive
7 | H-NQVAHAQ-NH2 |  |  | Activity [10]: inactive
8 | H-NQVANAQ-NH2 |  |  | Kd(app) [2]: inactive; Kd(app) [3]: inactive
9 | H-NQVANHA-NH2 | 13.4 | 47.5 | 
10 | H-NQVANHQ-NH2 | 4.6 | 22.9 | Kd [11]: 3.1 µM
11 | H-NQVANHR-NH2 |  | 20.5 | Kd [11]: 31.8 µM
12 | H-NQVANRQ-NH2 | 4.5 | 14.4 | 
13 | H-NQVARHQ-NH2 |  | 16.5 | Kd(app) [2]: inactive
14 | H-NQVRNHQ-NH2 | > 20 | 21.7 | 
15 | H-NRVANHQ-NH2 | > 40 | 35.5 | 

More lines, main results first:

Row | Kd [2] [µM] | Molecule | Kd [3] [µM] | further results
16 | 16 | H-NQVAHHQ-NH2 |  | 
17 | > 20 | H-NQVANAH-NH2 |  | 
18 | > 20 | H-NQVANHH-NH2 |  | 
19 | 2.1 | H-RQVANHQ-NH2 | 10 | 
